Key:
[1] = tested on: ROS production generated by reverse electron transfer (RET) from Complex II to Complex I; assay: Reverse electron transfer assay (RET assay) in isolated brain mitochondria; format: biochemical, mouse
Protocol: For mitochondria isolation, brains were dissected at a local vivarium (Explora, MA, USA) from C57BL/6 mice that were supplied by The Jackson Laboratory (Maine, USA). Brains were collected on ice in cold mitochondria isolation buffer (225 mM mannitol, 75 mM sucrose, 5 mM HEPES, 1 mM EGTA, pH 7.4). In a glass petri dish, brains were mixed with a few drops of buffer and cut into small pieces resembling a mash using scissors. Mitochondrial isolation buffer was added at 1:10-1:20 (w/v) and tissue mash was transferred to a glass Dounce tissue homogenizer and further homogenized with 10-15 strokes. Mash was centrifuged at 1,000×g for 10 min to pellet and remove cellular debris, etc. Supernatant was transferred into 2.0 mL tubes and centrifuged at 10,000×g. […]
All high-resolution respirometry experiments were conducted using the Oroboros O2k-Fluorespirometer (Oroboros, Innsbruck, Austria). […] Prior to each experiment requiring the fluorescence module, the AmpR calibration protocol from DatLab 7.4 was used to calibrate the fluorescence signal. […]
Reverse electron transfer (RET) was measured using HRR with the Oroboros O2k and DatLab 7.4. […]
Statistical analysis was performed using GraphPad Prism 9. […] RET Assay data were analyzed by 2-way ANOVA using a p-value of 0.05. […]

[2] = Pharmacokinetics of Compound 3 and Compound 4, five daily subcutaneous doses, mice (plasma, heart, brain); format: in vivo, C57Bl/6 mice; conditions: mouse; for tolerability: SC once per day for 5 days, up to 60 mg/kg
Protocol: • Animals: Male/C57Bl/6 mice/-18-25 grams were received from an approved vendor. • Fasting was not required for this study. • Body weights were recorded prior to dose administration. The volume of each dose delivered (mL/kg) was based on each individual animal's body weight. • This was a multiple dose terminal study dosed once per day over 5 days. Mice were taken down following their 5th and final dose. • Doses were administered in accordance with test facility standard operating procedures. […] Any abnormalities were recorded. • Pre-formulated Compound 3 and Compound 4 were provided by Study sponsor ready to be dosed for each day in accordance with the Study Design set forth in Table 1, below.
• Terminal blood samples were collected via cardiac puncture following inhalation of anesthesia in accordance with test facility standard operating procedures. • Blood samples were collected into tubes with appropriate anticoagulant. The tubes were stored on wet ice until processed to plasma by centrifugation (3500 rpm at 5° C. for 10 minutes) within 20 minutes of collection. Sample aliquots of 100 μL were transferred into individual uniquely labeled matrix tubes and stored at nominal −80° C. until transferred to analytical chemistry for analysis by LC/MS/MS. • Immediately following each terminal blood collection for all groups, animals were sacrificed and perfused with cold PBS. The following tissues were collected: heart and brain in accordance with Table 2. • Plasma and tissue samples were processed for analysis by LC/MS/MS to determine the amounts/concentrations reported in the FIGS. 18-21.

[3] = tested on: Leigh fibroblasts (GM03672); assay: Mitochondrial membrane potential (TMRM flow cytometry) in RSL3-treated Leigh fibroblasts; format: cell-based, human; conditions: 1 μM RSL3 with 1 μM compound, 4 h
Protocol: Leigh fibroblasts (GM03672) were seeded in a 24-well, tissue culture-treated plate in complete MEM (MEM+15% FBS+1% penicillin/streptomycin) at a density of 1×10^5 cells per 500 μL and incubated overnight at 37° C. at 5% CO2. Cells were treated for 4 hours at 37° C. with either 1 μM RSL3, 1 μM RSL3 with 1 μM Compound 3 or media for untreated cells. Following the incubation, supernatant was removed and cells were treated with 0.25% trypsin for 5 min at 37° C. Trypsin was neutralized with an equal part MEM. Cells were dislodged with gentle pipetting and pelleted at 300×g for 5 minutes. Pellets were resuspended in 500 μL Fluobrite DMEM and cells were transferred to a 96-well, v-bottom plate. Cells were stained with 20 nM MitoTracker Green and 100 nM tetramethylrhodamine methyl ester (TMRM) Samples were incubated for 25 minutes at 37° C. Each well was mixed immediately prior to analysis to resuspend settled cells. Fluorescence intensity was measured on the BD Accuri C6 Plus Flow Cytometer. A minimum of 10,000 events per sample was collected. Data analysis was performed using FloJo vs. 10. Gating was performed by establishing an initial forward scatter vs. side scatter gate. MitoTracker Green positive, TMRM positive cells were identified through subsequent gating. Median fluorescence intensity (MFI) of TMRM fluorescence was determined. Using GraphPad Prism 10, statistical significance between groups was determined by One-way ANOVA. A p-value of less than 0.05 was considered significant. Results are presented graphically in FIG. 20.

[4] = SC, up to 2 hours post dose after 5 days

With `CC1=C(C)C(=O)C(CC[C@@](C)(O)COCCC[Si](C)(C)C)=C(C)C1=O` [Compound 3] the H2O2 production ([1]; 2 μM compound prior to succinate (10 mM)) was “statistically significant reduction”, the “exposure (Cmax and AUC) heart compared with brain” value ([2]; SC) was “higher in heart than in brain” and the “heart exposure based on AUC, comparison between compounds” value ([2]; SC) was “slightly higher that Compound 4”. The “uptake into plasma after subcutaneous injection” value ([2]; SC) was “migrate into the blood stream”, the tolerability [2] was “well tolerated” and the “concentration in brain tissue” value [2, 4] was “up to microgram quantities of drug per gram of brain tissue”. The “concentration in heart tissue” value [2, 4] was “up to microgram quantities of drug per gram of heart tissue” and the “mitochondrial membrane potential (TMRM MFI), protection” value [3] was “protective of the Leigh fibroblasts from the loss of mitochondrial membrane potential”.
With `CC1=C(C)C(=O)C(CC[C@](C)(O)CCCCCCCCC(F)(F)F)=C(C)C1=O` [Compound 4] the H2O2 production ([1]; either 1 or 2 μM compound prior to succinate (10 mM)) was “statistically significant reduction”, the tolerability [2] was “well tolerated” and the “Tmax, Compound 4 compared with Compound 3” value ([2]; in vivo, sc) was “typically later”. For the same compound, the “brain exposure based on AUC, comparison between compounds” value ([2]; in vivo, sc) was “somewhat higher than Compound 3”, the “exposure (Cmax and AUC) heart compared with brain” value ([2]; in vivo, sc) was “no difference in the two tissue exposures” and the “half-life, Compound 4 compared with Compound 3” value ([2]; in vivo, sc) was “tended to be longer”. For the same compound, the “uptake into plasma after subcutaneous injection” value ([2]; in vivo, sc) was “migrate into the blood stream” and the “mitochondrial membrane potential (TMRM MFI), protection” value [3] was “protective of the Leigh fibroblasts from the loss of mitochondrial membrane potential”.

Reference: US20250090562A1, “METHODS, COMPOSITIONS AND USES RELATED TO THE TREATMENT AND PREVENTION OF LEIGH’S SYNDROME” (Stealth BioTherapeutics Inc., priority 2023, published 2025)
